# Test: Human HepG2 cell viability assay in 384 well format
# Type: toxicity, cell-based
# Design: dose 125 nL, time 70.5 hour; concentration not given beside the values
# Details: HepG2 cells, read-out: Inhibition
row,SMILES,cytotoxicity at 70.5 h [%]
1,Cc1nc(NC2CC2)c2c(n1)c(C)nn2C,-18.4
2,CC(C)c1nc(C2CCCN2Cc2cc(=O)n(C)c(=O)n2C)no1 (stereo unspecified),-4.31
3,COc1ccc(C(CNC(=O)NCc2csc(C)n2)N(C)C)cc1 (stereo unspecified),21
4,O=C(c1ccnnc1)N1C[C@@H](OCC2CCOCC2)[C@H]2OCCC[C@H]21,-12.9
5,O=C(Cc1ccc2c(c1)CCO2)Nc1cccnc1-n1cncn1,16.3
6,COc1ccc(CNC(=O)NC(C)(CO)C2CC2)c(C(F)(F)F)c1 (stereo unspecified),0.673
7,Cn1cc(CN2CCC3(CCCN3Cc3cccnc3)CC2)cn1,-3.83
8,Cc1ccc(NS(C)(=O)=O)c(C(=O)NCCC(=O)NC(C)C)c1,-6.46
9,Cc1ccc(S(=O)(=O)NC(C)C#N)cc1Br (stereo unspecified),-3.42
10,CC(=O)NC[C@]1(O)CCN(C(=O)c2ccc3c(c2)CCC3)C[C@H]1O,-3.52
11,Cc1cc(N2CCCC2)nc(N(C)CCO)c1C#N,-9.55
12,Cn1ccnc1CN1CCN(Cc2ccccc2C#N)CC1,6.78
13,O=C(CC1OCCc2ccccc21)NCC1(O)CCCCC1 (stereo unspecified),-2.94
14,Cc1nc(C2CCN(C[C@H](C)CO)CC2)cc(N2CCOCC2)n1,-0.547
15,Cc1ccccc1-c1cncc(C2CCN(C3CCOCC3)CC2)n1,1
16,CCc1nccn1C1CCCN(C(=O)c2ccoc2C)C1 (stereo unspecified),1.06
17,CCC(NC(N)=O)c1ccccc1OCC(=O)N1CCCC1 (stereo unspecified),-10.1
18,CCNC(=O)N(C)C(c1cccnc1)C(C)C (stereo unspecified),-9.88
19,Cc1nccnc1C1CCN(C(=O)C(C)C)CC1,-5.9

row,SMILES,cytotoxicity at 70.5 h [%]
1,O=C(NCC(=O)N1CCCC(n2cncn2)C1)OCc1ccccc1 (stereo unspecified),-0.265
2,c1ccc(NC[C@@H]2CCC[C@@H]3CN(Cc4nccs4)C[C@@H]32)nc1,-0.385
3,CCc1nn2c(=N)c(C#N)n[nH]c2c1-c1ccc(OC)cc1,-18.3
4,CCn1nnc2c1C(COC)CN(C(=O)Cc1cccs1)C2 (stereo unspecified),-7.34
5,NC(=O)N1CCCC1COC(=O)c1cc(F)ccc1F (stereo unspecified),-1.3
6,c1cnnc(N2CCCC(NCc3nc(-c4ccsc4)no3)C2)c1 (stereo unspecified),-0.51
7,O=C(NCc1ccccc1)NCC1CCN(Cc2ccsc2)CC1,-7.87
8,COc1ccc(C(C)NCc2c[nH]nc2C)cc1OC (stereo unspecified),-8.7
9,CCc1nnc2n1CCN(Cc1cc(Cl)c3c(c1)OCCCO3)C2,0.524
10,COc1cc(OC)cc(C(=O)NCCCNc2ncccn2)c1,-7.17
11,Oc1ccc(Br)c(CNc2cccc(-c3nnc[nH]3)c2)c1,1.61
12,CN(C)C1CCN(C(=O)Cc2csc(-c3ncccn3)n2)CC1,0.448
13,CC1CCN(c2ccc(C(=O)N3CCCC3c3ccc[nH]3)cn2)CC1 (stereo unspecified),5.1
14,Cc1[nH]/c(=N/C(=O)Cn2nc(N3CCOCC3)ccc2=O)sc1C,-6.43
15,CS(=O)(=O)N1C[C@@H]2OCC(=O)N(CC3CCC3)[C@@H]2C1,-6.88
16,Cn1nc(C2CCNC2)c2c(C(=O)NC3CC3)cc(C3CC3)nc21 (stereo unspecified),17.5
17,C[C@@H](NC(=O)c1cccn1C)c1c(-c2ccc(Cl)cc2)noc1C(=O)O,-7.66
18,COc1ccc(COCC(O)CN2CCC(c3ccn[nH]3)CC2)cc1 (stereo unspecified),-8.27
19,c1ccc(CCCN2CCCN(c3ncnc4[nH]ccc34)CC2)cc1,-15.3

row,SMILES,cytotoxicity at 70.5 h [%]
1,Cc1nc(C2CCCN2Cc2cc(Cl)c3c(c2)OCO3)no1 (stereo unspecified),-4.26
2,CCC(C)C(=O)NCc1cccc(N2CCCCC2=O)c1 (stereo unspecified),-4.37
3,COc1ccc(C2=NOC(C(=O)N3CCCc4ccccc43)C2)cc1 (stereo unspecified),8.49
4,COc1cccc(CCn2ccnc2-c2cn(C3CCNCC3)nn2)c1,28.6
5,COc1no[n+]([O-])c1-c1ccccc1,2.46
6,CCCn1nc2c(cc1=O)CN(C(C)C(=O)Nc1nccs1)CC2 (stereo unspecified),4.51
7,CC(NCc1ccco1)c1nnc2n1CCCC2 (stereo unspecified),-5.13
8,CN1C[C@@H]2CN(C(=O)NCc3ccccc3)CCC[C@]2(C(=O)O)C1,-1.78
9,CCc1ncc(C(=O)N2CCCN(C3CCCCC3)CC2)cn1,10.7
10,Cc1nc(C)n(CC2CCCCN2CCCN2CCCC2=O)n1 (stereo unspecified),33.6
11,O=C(CN1CCOCC1CC(=O)c1ccco1)NCc1ccccn1 (stereo unspecified),2.07
12,CC(C)(C)CN(CCC#N)C(=O)Nc1cccc(N2CCNC2=O)c1,-10.7
13,CCOC(=O)c1sc(NC(=O)CN(C)S(C)(=O)=O)c(C#N)c1C,26.2
14,Cc1cnn(C(C)C2CC2)c1NC(=O)c1cnccn1 (stereo unspecified),-11.2
15,O=C1C(NS(=O)(=O)c2cccc(F)c2)CCN1Cc1ccccc1 (stereo unspecified),-12
16,CCNC(=O)N(CCCO)C1CCCc2ccccc21 (stereo unspecified),-3.93
17,COc1ccc(CN(CCC#N)CCN2CCOCC2)cc1OC,-10.2
18,C[C@@H]1CN(C(=O)CCCn2nnc(-c3ccc(F)cc3)n2)C[C@]1(C)O,22.7

# Reference: ChEMBL document CHEMBL3507680, “University of Dundee, Gates Library screen for HepG2 cell viability”
